Results reported in the supplement of paper PMC8882468.

Columns and labels:
Assay in all cases: CTG-3D luminescence at 96 h relative to day-0 seeding control (ratio to day 0); higher = more growth / less cytotoxicity; PDxO 3D drug screen, 96 h, CTG-3D normalised to day-0 seeding control.
HCI-024 = system: HCI-024 (organoid from a breast cancer xenograft)
HCI-012 = system: HCI-012 (organoid from a breast cancer xenograft)
HCI-003.E2 = system: HCI-003.E2 (organoid from an ER-positive breast cancer xenograft)
MDA-MB-231 = system: MDA-MB-231
HCI-027 = system: HCI-027 (organoid from a triple-negative breast cancer xenograft)
HCI-019 = system: HCI-019 (organoid from a triple-negative breast cancer xenograft)
HCI-023 = system: HCI-023 (organoid from a triple-negative breast cancer xenograft)

COc1cccc2c1C(=O)c1c(O)c3c(c(O)c1C2=O)C[C@@](O)(C(=O)CO)C[C@@H]3O[C@H]1C[C@H](N)[C@H](O)[C@H](C)O1 [doxorubicin]
CTG-3D luminescence at 96 h
Conditions	12.5 pM	0.00025 µM	0.005 µM	0.1 µM	1 µM	10 µM	100 µM	625 fM
HCI-012, days in culture: 143	1.78	1.93	1.8	0.35	0.0586	-0.00257	-0.0149	1.91
HCI-012, days in culture: 162	2.15	2.16	2.04	0.961	0.0655	0.00235	-0.0139	3.15
HCI-012, days in culture: 201	2.84	1.58	1.7	0.408	0.0363	0.000335	-0.0192	1.33
HCI-019, days in culture: 110	1.69	1.56	1.49	1.03	0.296	0.00454	-0.00853	1.91
HCI-019, days in culture: 131	3.03	3.8	2.31	1.47	0.314	0.00725	-0.0127	4.1
HCI-019, days in culture: 152	3.43	3.12	2.32	1.57	0.409	0.00363	-0.00918	2.03
HCI-023, days in culture: 111	1.54	1.21	1.32	1.1	0.426	0.00296	0.00755	1.45
HCI-023, days in culture: 128	1.92	1.73	1.62	1.33	0.321	0.00812	0.00367	2.08
HCI-024, days in culture: 105	1.87	1.64	1.47	1.53	1.05	0.158	0.154	2.18
HCI-024, days in culture: 122	2.06	2.32	1.72	1.45	1.06	0.153	0.156	2.88
HCI-024, days in culture: 163	1.43	2.44	1.96	2.3	1.38	0.176	0.187	1.44
HCI-027, days in culture: 176	2.14	1.93	1.87	0.162	0.0301	0.0198	0.0148	1.53
HCI-027, days in culture: 194	1.83	1.43	1.48	0.308	0.0306	0.0259	0.0261	1.7
HCI-027, days in culture: 201	1.99	2.28	1.79	0.325	0.0185	0.0267	0.0218	2.05

CTG-3D luminescence at 96 h
Conditions	12.5 pM	0.00025 µM	0.005 µM	0.1 µM	1 µM	10 µM	100 µM	625 fM
HCI-003.E2	2.13	2.46	2.07	2.22	1.15	0.024	-0.00504	2.13
MDA-MB-231	4.38	4.45	4.38	3.75	1.48	0.458	0.288	4.4

C/C=C1\NC(=O)[C@H]2CSSCC/C=C/[C@H](CC(=O)N[C@H](C(C)C)C(=O)N2)OC(=O)[C@H](C(C)C)NC1=O [romidepsin]
CTG-3D luminescence at 96 h
Conditions	12.5 pM	0.00025 µM	0.005 µM	0.1 µM	1 µM	10 µM	100 µM	625 fM
HCI-012, days in culture: 143	2.11	2.61	0.686	0.0407	0.0227	0.0103	-0.00702	1.66
HCI-012, days in culture: 162	2.25	2.64	0.53	0.0384	0.0172	0.00772	-0.00766	2.87
HCI-012, days in culture: 201	2.24	0.795	0.629	-0.145	-0.118	-0.159	-0.214	1.98
HCI-019, days in culture: 110	1.6	1.12	0.598	0.376	0.0772	0.000883	-0.00824	2.26
HCI-019, days in culture: 131	2.29	2.76	1.06	0.975	0.441	0.00479	-0.00826	3.05
HCI-019, days in culture: 152	1.95	1.43	1.55	0.685	0.489	0.00416	-0.00783	1.53
HCI-023, days in culture: 111	1.65	1.37	0.46	0.0304	0.0241	-0.00341	-0.0106	1.9
HCI-023, days in culture: 128	1.66	1.55	0.343	0.104	0.0518	0.00597	-0.00382	1.556
HCI-024, days in culture: 105	1.55	1.48	0.453	0.311	0.111	0.00592	-0.00576	1.92
HCI-024, days in culture: 122	1.84	2.34	0.619	0.277	0.107	0.00509	-0.00823	1.91
HCI-024, days in culture: 163	1.76	1.96	0.576	0.334	0.124	0.00767	-0.00793	1.96
HCI-027, days in culture: 176	2.43	1.27	0.05	0.0166	0.376	-0.165	-0.237	2.12
HCI-027, days in culture: 194	2.63	1.95	0.739	0.437	0.349	-0.0181	-0.0853	2.17
HCI-027, days in culture: 201	3.22	2.72	1.35	0.611	0.234	0.136	-0.0194	3.25

CTG-3D luminescence at 96 h
Conditions	12.5 pM	0.00025 µM	0.005 µM	0.1 µM	1 µM	10 µM	100 µM	625 fM
HCI-003.E2	1.2	0.624	0.21	0.0473	0.0243	0.0035	-0.00659	0.719
MDA-MB-231	3.87	3.12	0.22	0.0791	0.0421	-0.000441	-0.0309	4.02
